The values below come from patent publication EP1860442A2, “Neurosteroids as markers for Alzheimer's disease” (Georgetown University, priority 2000, dated 2001).

Test [1] deals with MGM-1 cells. In words: β-Amyloid regulation of the alternative pathway: ROS (2,7-DCF fluorescence). In kind it is cell-based, human. As to conditions: 50 mM Aβ versus control, p < 0.01. On the procedure: β-Amyloid Regulation of the Alternative Pathway: MGM-1 cells were plated on 96 well (~5,000 cells/well, for ROS measurements) or 24 well (~15,000 cells/well, for D measurements) plates (Coming Costar, Acton, MA). At the same time, 1mg Ab (Ab (1-42), AnaSpec Inc., San Jose, CA) was dissolved in 0.5 ml serum-free media and incubated at 4C for aggregation. 24 hours later, cells were incubated in DMEM with 10% fetal bovine serum and […] or […] and 10 mM Vitamin E (Sigma, St. Louis, MO). Control samples were incubated in DMEM with 10% FBS. Cells were incubated at 37C and 6% CO2 for at least 12 hours and processed for ROS generation (see below) or D synthesis as described above for the alternative experiments.
Treatment media was removed and the cells were washed with PBS. The fluorescent probe 2,7- dichlorofluorescin diacetate (2,7-DCF, Molecular Probes, Inc., Eugene, OR) was used to measure levels of oxidative stress (48). Cells were incubated with […] 2,7-DCF, fluorescence was measured at 485nm/535nm using the Victor^2 Multilabel Counter (EG&G Wallac, Gaithersburg, MD) and values of cellular fluorescence were obtained.

Test [2] concerns MGM-1 cells. Description: β-Amyloid regulation of the alternative pathway: D synthesis. In kind it is cell-based, human. The note with it: 50 mM Aβ versus control, p < 0.01. The procedure:
Alternative Pathway: To determine the amount ofD synthesized by the alternative pathway cells were treated as previously described (15). In brief, cells were washed and oligodendrocytes and astrocytes were incubated with increasing concentrations of FeSO4 in serum free media, with and without SU 10603 (10 mM); neurons were incubated in serum free media containing 5 mM P plus FeSO4, with and without 10 mM SU 10603. After two hours, cells and media were homogenized and extracted as described above. Extracts were run on C18 TLC plates (Whatman, Clifton, NJ) with a mobile phase of 95% methanol (v/v); radiolabeled standards for P, progesterone, and D were run on each plate, and appropriate steroid fractions were collected for each sample. TLC fractions were extracted with 2 ml diethyl ether (Fluka, New York) and evaporated. TLC extracts were assayed by specific radioimmunoassay (RIA). […]
RIA using antibodies specific for each steroid (ICN Pharmaceuticals, Costa Mesa, CA Mesa) was used to measure P, progesterone and D levels. The data were analyzed using the IBM-PC RIA Data Reduction Program (version 4.1) from Jaffe and Associates (Silver Spring, MD). Levels of β-amyloid species in AD and control brain samples were analyzed using 4G8 (Senetex PLC, Napa, CA), a monoclonal antibody to β-amyloid peptide that recognizes amino acids 17-24. […]

For “Aβ: β-amyloid peptide Ab (1-42), AnaSpec Inc., aggregated; a component of Alzheimer's disease plaques”, the “2,7-DCF fluorescence (ROS)” value in test [1] is “significant increase”. Also, the D levels result in test [2] is listed as “increased D levels significantly over control”.
